Test results taken from US4015974A, “Amido phosphorothiolates” (priority 1972, dated 1977).

How the values were obtained:
Format in all cases: in vivo
[1] = test system: barnyard grass (Echinochloa crus-galli); test: Pre-emergence application, herbicidal effect on barnyard grass (Table 1); set-up: key: 0: not damaged; 5: completely killed; conditions: 20 days after application, score 0-5
Text: (§1) Seeds of barnyard grass (Echinochloa crus-galli) and large crabgrass (Digitaria sanguinalis) as representatives of grassy weeds and those of radish, redroot pigweed (Amaranthus retroflexus), common purslane (Portulaca oleracea) and common lambsquarter (Chenopodium album) as representatives of broad-leaved weeds were individually sowed in flower pots of about 10 cm. in diameter. After covering the seeds with soil, test compounds as shown in Table 1 were individually applied to the soil treatment. Thereafter the plants were grown in a green house and 20 days after application the herbicidal effects of the compounds were observed, the results of which are as shown in Table 1.
(§2) Herbicidal effects were evaluated by the numerals ranging from 0 (not damaged) to 5 (completely killed). All the test compounds were used in the form of wettable powder and diluted with water before application.

[2] = test system: large crabgrass (Digitaria sanguinalis); test: Pre-emergence application, herbicidal effect on large crabgrass (Table 1); set-up: key: 0: not damaged; 5: completely killed; conditions: 20 days after application, score 0-5
Text: as §1, §2

radish = test: Pre-emergence application, herbicidal effect on radish (Table 1); set-up: key: 0: not damaged; 5: completely killed; conditions: 20 days after application, score 0-5
Text: as §1, §2

[3] = test system: redroot pigweed (Amaranthus retroflexus); test: Pre-emergence application, herbicidal effect on redroot pigweed (Table 1); set-up: key: 0: not damaged; 5: completely killed; conditions: 20 days after application, score 0-5
Text: as §1, §2

[4] = test system: common purslane (Portulaca oleracea); test: Pre-emergence application, herbicidal effect on common purslane (Table 1); set-up: key: 0: not damaged; 5: completely killed; conditions: 20 days after application, score 0-5
Text: as §1, §2

[5] = test system: common lambsquarter (Chenopodium album); test: Pre-emergence application, herbicidal effect on common lambsquarter (Table 1); set-up: key: 0: not damaged; 5: completely killed; conditions: 20 days after application, score 0-5
Text: as §1, §2

rice = test: Water application, phytotoxicity on rice (Table 2); set-up: key: 0: no effect; 1: very slightly affected; 2: slightly affected; 3: moderately affected; 4: considerably affected; 5: completely killed; conditions: 25 days, score 0-5
Text: (§3) Wagner pots of 14 cm. in diameter, which had been packed with 1.5 kg. of paddy field soil, were brought into the state of paddy fields. To the pots were transplanted rice seedlings at the 3-leave stage. Further, seeds of barnyard grass (Echinochloa crus-galli) were sowed in the pots and required amounts of test compounds were applied to the soil under water lodged condition. 25 days after application, the degrees of herbicidal activity and phytotoxity were investigated on above-mentioned plants which had been transplanted and sowed, and on broad-leaved weeds, e.g., monochoria (Monochoria viaginalis Presl.), false pimpernel (Linderna pyxidaria) and toothcup (Rotala indica Koehue), which had been spontaneously germinated. The test compounds were used in the form of wettable powder. The herbicidal effects and the phytotoxity were evaluated as follows by the numerals ranging from 0 to 5.

[6] = test system: barnyard grass (Echinochloa crus-galli); test: Water application, herbicidal effect on barnyard grass (Table 2); set-up: key: 0: not damaged; 5: completely killed; conditions: 25 days, score 0-5
Text: as §3

[7] = test system: broad-leaved weeds, e.g., monochoria, false pimpernel and toothcup; test: Water application, herbicidal effect on broad-leaved weeds (Table 2); set-up: key: 0: not damaged; 5: completely killed; conditions: 25 days, score 0-5
Text: as §3

Compound	Herbicidal effect, barnyard grass ([1]; 10 g./a.)	Herbicidal effect, barnyard grass ([1]; 20 g./a.)	Herbicidal effect, barnyard grass ([1]; 40 g./a.)	Herbicidal effect, large crabgrass ([2]; 10 g./a.)	Herbicidal effect, large crabgrass ([2]; 20 g./a.)	Herbicidal effect, large crabgrass ([2]; 40 g./a.)	Herbicidal effect, radish (radish; 10 g./a.)	Herbicidal effect, radish (radish; 20 g./a.)	Herbicidal effect, radish (radish; 40 g./a.)	Herbicidal effect, redroot pigweed ([3]; 10 g./a.)	Herbicidal effect, redroot pigweed ([3]; 20 g./a.)	Herbicidal effect, redroot pigweed ([3]; 40 g./a.)	Herbicidal effect, common purslane ([4]; 10 g./a.)	Herbicidal effect, common purslane ([4]; 20 g./a.)	Herbicidal effect, common purslane ([4]; 40 g./a.)	Herbicidal effect, common lambsquarter ([5]; 10 g./a.)	Herbicidal effect, common lambsquarter ([5]; 20 g./a.)	Herbicidal effect, common lambsquarter ([5]; 40 g./a.)	Phytotoxicity on rice (rice; 10 g/a)	Phytotoxicity on rice (rice; 20 g/a)	also measured
CCOP(=O)(SCC(=O)N1CCC(C)CC1)SC(C)CC (stereo not drawn) [Compound 27]	4	5	5	5	5	5	0	0	0	3	4	5	4	4	4	4	4	5	0	0	Phytotoxicity on rice (rice; 40 g/a): 0; Herbicidal effects, barnyard grass ([6]; 10 g/a): 5; Herbicidal effects, barnyard grass ([6]; 20 g/a): 5; Herbicidal effects, barnyard grass ([6]; 40 g/a): 5; Herbicidal effects, broad-leaved weeds ([7]; 10 g/a): 5; Herbicidal effects, broad-leaved weeds ([7]; 20 g/a): 5; Herbicidal effects, broad-leaved weeds ([7]; 40 g/a): 5
CCCCOP(=O)(SCC(=O)N1CCCCC1C)SCc1ccc(C)cc1 (stereo not drawn) [Compound 56]	5	5	5	4	5	5	0	0	0	3	3	5	3	3	4	3	4	5	0	0	Phytotoxicity on rice (rice; 40 g/a): 0; Herbicidal effects, barnyard grass ([6]; 10 g/a): 5; Herbicidal effects, barnyard grass ([6]; 20 g/a): 5; Herbicidal effects, barnyard grass ([6]; 40 g/a): 5; Herbicidal effects, broad-leaved weeds ([7]; 10 g/a): 5; Herbicidal effects, broad-leaved weeds ([7]; 20 g/a): 5; Herbicidal effects, broad-leaved weeds ([7]; 40 g/a): 5
CCCCCCSP(=O)(OCC)SCC(=O)N1CCCCC1C (stereo not drawn) [Compound 62]	4	5	5	4	5	5	0	0	0	3	4	5	3	4	5	4	4	5	0	0	Phytotoxicity on rice (rice; 40 g/a): 0; Herbicidal effects, barnyard grass ([6]; 10 g/a): 5; Herbicidal effects, barnyard grass ([6]; 20 g/a): 5; Herbicidal effects, barnyard grass ([6]; 40 g/a): 5; Herbicidal effects, broad-leaved weeds ([7]; 10 g/a): 5; Herbicidal effects, broad-leaved weeds ([7]; 20 g/a): 5; Herbicidal effects, broad-leaved weeds ([7]; 40 g/a): 5
CCOP(=O)(SCC(=O)N1CCCCC1C)SC(C)c1ccccc1 (stereo not drawn) [Compound 64]	4	5	5	4	5	5	0	0	0	3	3	4	3	3	4	3	4	4	0	0	Phytotoxicity on rice (rice; 40 g/a): 0; Herbicidal effects, barnyard grass ([6]; 10 g/a): 5; Herbicidal effects, barnyard grass ([6]; 20 g/a): 5; Herbicidal effects, barnyard grass ([6]; 40 g/a): 5; Herbicidal effects, broad-leaved weeds ([7]; 10 g/a): 5; Herbicidal effects, broad-leaved weeds ([7]; 20 g/a): 5; Herbicidal effects, broad-leaved weeds ([7]; 40 g/a): 5
CCCOP(=O)(SC)SCC(=O)N1CCCCC1C (stereo not drawn) [Compound 66]	5	5	5	5	5	5	0	0	1	5	5	5	5	5	5	5	5	5	0	0	Phytotoxicity on rice (rice; 40 g/a): 0; Herbicidal effects, barnyard grass ([6]; 10 g/a): 5; Herbicidal effects, barnyard grass ([6]; 20 g/a): 5; Herbicidal effects, barnyard grass ([6]; 40 g/a): 5; Herbicidal effects, broad-leaved weeds ([7]; 10 g/a): 5; Herbicidal effects, broad-leaved weeds ([7]; 20 g/a): 5; Herbicidal effects, broad-leaved weeds ([7]; 40 g/a): 5
